Laboratory results from ChEMBL document CHEMBL3885861, “Open TG-GATES”.

Organism: Rattus norvegicus
Assay: Open TG-GATES - Regimen: Single
Format: toxicity, organism-based, Sprague-Dawley
Parameters: regimen Single, gender Male, age 6 weeks
Details: in vivo, po, 100 mg/kg, route gavage, dose level Middle; for APTT / Bas / Eos / Fbg / Hb / Ht / Lym / MCH / MCHC / MCV / Mono / Neu / PT / Plat / RBC / Ret / WBC: tissue Blood; for KIDNEY_L / KIDNEY_R / KIDNEY_TOTAL: tissue Kidney; for LIVER: tissue Liver; for A/G / ALP / ALT / AST / BUN / CRE / Ca / Cl / DBIL / GLC / IP / K / LDH / Na / PL / RALB / TBIL / TC / TG / TP / gamma-GTP: tissue Plasma

C[C@]12CCC(=O)C=C1CC[C@@H]1[C@@H]2CC[C@@]2(C)[C@H]1CC[C@]2(C)O [METHYLTESTOSTERONE]
TERMINAL_BW (3 h): 202.8 g | APTT (3 h): 15.1 s | Bas (3 h): 0% | Eos (3 h): 1% | Fbg (3 h): 298.8 mg/dL | Hb (3 h): 12.9 g/dL | Ht (3 h): 37.9% | Lym (3 h): 72.2% | MCH (3 h): 22.2 pg | MCHC (3 h): 34.1% | MCV (3 h): 65 fL | Mono (3 h): 4.2% | Neu (3 h): 22.4% | PT (3 h): 13.1 s | Plat (3 h): 111.5 x10_4/uL | RBC (3 h): 582.8 x10_4/ul | Ret (3 h): 8.9% | WBC (3 h): 65.4 x10_2/uL | KIDNEY_L (3 h): 0.9 g | KIDNEY_R (3 h): 0.9 g | KIDNEY_TOTAL (3 h): 1.8 g | LIVER (3 h): 9.3 g | A/G (3 h): 0.9 | ALP (3 h): 1276.2 IU/L | ALT (3 h): 45.6 IU/L | AST (3 h): 74 IU/L | BUN (3 h): 11 mg/dL | CRE (3 h): 0.2 mg/dL | Ca (3 h): 11 mg/dL | Cl (3 h): 106.2 meq/L | DBIL (3 h): 0.01 mg/dL | GLC (3 h): 184.8 mg/dL | IP (3 h): 9.6 mg/dL | K (3 h): 4.3 meq/L | LDH (3 h): 73.8 IU/L | Na (3 h): 141.2 meq/L | PL (3 h): 136.2 mg/dL | RALB (3 h): 2.5 g/dL | TBIL (3 h): 0.042 mg/dL | TC (3 h): 74 mg/dL | TG (3 h): 63 mg/dL | TP (3 h): 5.4 g/dL | gamma-GTP (3 h): 1 IU/L | TERMINAL_BW (6 h): 202.3 g | APTT (6 h): 16.9 s | Bas (6 h): 0% | Eos (6 h): 1% | Fbg (6 h): 274.4 mg/dL | Hb (6 h): 13 g/dL | Ht (6 h): 37.9% | Lym (6 h): 74.4% | MCH (6 h): 21.5 pg | MCHC (6 h): 34.3% | MCV (6 h): 62.6 fL | Mono (6 h): 3.6% | Neu (6 h): 20.8% | PT (6 h): 13.4 s | Plat (6 h): 103.9 x10_4/uL | RBC (6 h): 606.6 x10_4/ul | Ret (6 h): 8.3% | WBC (6 h): 68.3 x10_2/uL | KIDNEY_L (6 h): 0.9 g | KIDNEY_R (6 h): 0.9 g | KIDNEY_TOTAL (6 h): 1.8 g | LIVER (6 h): 8.3 g | A/G (6 h): 0.9 | ALP (6 h): 1515.6 IU/L | ALT (6 h): 38 IU/L | AST (6 h): 75.6 IU/L | BUN (6 h): 9.4 mg/dL | CRE (6 h): 0.2 mg/dL | Ca (6 h): 10.7 mg/dL | Cl (6 h): 107.4 meq/L | DBIL (6 h): 0.014 mg/dL | GLC (6 h): 181.6 mg/dL | IP (6 h): 9.8 mg/dL | K (6 h): 4.3 meq/L | LDH (6 h): 56 IU/L | Na (6 h): 141.2 meq/L | PL (6 h): 126.4 mg/dL | RALB (6 h): 2.5 g/dL | TBIL (6 h): 0.048 mg/dL | TC (6 h): 64 mg/dL | TG (6 h): 49.4 mg/dL | TP (6 h): 5.3 g/dL | gamma-GTP (6 h): 1.2 IU/L | TERMINAL_BW (9 h): 203.2 g | APTT (9 h): 16.2 s | Bas (9 h): 0% | Eos (9 h): 1% | Fbg (9 h): 296 mg/dL | Hb (9 h): 13.2 g/dL | Ht (9 h): 38.4% | Lym (9 h): 76.8% | MCH (9 h): 21.5 pg | MCHC (9 h): 34.3% | MCV (9 h): 62.9 fL | Mono (9 h): 2.8% | Neu (9 h): 18.8% | PT (9 h): 13.5 s | Plat (9 h): 112.3 x10_4/uL | RBC (9 h): 611.6 x10_4/ul | Ret (9 h): 8.1% | WBC (9 h): 69 x10_2/uL | KIDNEY_L (9 h): 0.9 g | KIDNEY_R (9 h): 0.8 g | KIDNEY_TOTAL (9 h): 1.7 g | LIVER (9 h): 8.1 g | A/G (9 h): 0.9 | ALP (9 h): 1516.6 IU/L | ALT (9 h): 37.8 IU/L | AST (9 h): 70.2 IU/L | BUN (9 h): 8.2 mg/dL | CRE (9 h): 0.2 mg/dL | Ca (9 h): 10.5 mg/dL | Cl (9 h): 107.6 meq/L | DBIL (9 h): 0.016 mg/dL | GLC (9 h): 177.6 mg/dL | IP (9 h): 10.4 mg/dL | K (9 h): 4.3 meq/L | LDH (9 h): 69.4 IU/L | Na (9 h): 141.8 meq/L | PL (9 h): 119.2 mg/dL | RALB (9 h): 2.5 g/dL | TBIL (9 h): 0.046 mg/dL | TC (9 h): 53.6 mg/dL | TG (9 h): 89.8 mg/dL | TP (9 h): 5.3 g/dL | gamma-GTP (9 h): 1.2 IU/L | TERMINAL_BW (24 h): 205.5 g | APTT (24 h): 16.9 s | Bas (24 h): 0% | Eos (24 h): 1% | Fbg (24 h): 278.2 mg/dL | Hb (24 h): 13.1 g/dL | Ht (24 h): 38.5% | Lym (24 h): 77.6% | MCH (24 h): 21.5 pg | MCHC (24 h): 34.1% | MCV (24 h): 62.9 fL | Mono (24 h): 3% | Neu (24 h): 18.2% | PT (24 h): 13.3 s | Plat (24 h): 117.9 x10_4/uL | RBC (24 h): 613 x10_4/ul | Ret (24 h): 7.7% | WBC (24 h): 94.4 x10_2/uL | KIDNEY_L (24 h): 0.9 g | KIDNEY_R (24 h): 0.9 g | KIDNEY_TOTAL (24 h): 1.8 g | LIVER (24 h): 9.5 g | A/G (24 h): 0.9 | ALP (24 h): 1929.2 IU/L | ALT (24 h): 51.2 IU/L | AST (24 h): 76.2 IU/L | BUN (24 h): 14.8 mg/dL | CRE (24 h): 0.2 mg/dL | Ca (24 h): 11.1 mg/dL | Cl (24 h): 105.6 meq/L | DBIL (24 h): 0.022 mg/dL | GLC (24 h): 189.2 mg/dL | IP (24 h): 8.5 mg/dL | K (24 h): 4.3 meq/L | LDH (24 h): 97.8 IU/L | Na (24 h): 140.6 meq/L | PL (24 h): 142 mg/dL | RALB (24 h): 2.6 g/dL | TBIL (24 h): 0.032 mg/dL | TC (24 h): 65.4 mg/dL | TG (24 h): 141 mg/dL | TP (24 h): 5.6 g/dL | gamma-GTP (24 h): 1.4 IU/L
